Test results from paper PMC8309005, “Novel Non-Congeneric Derivatives of the Choline Kinase Alpha Inhibitor ICL-CCIC-0019” (Pharmaceutics, 2021).

Tests used:
DGK b = DGK b (Homo sapiens, UniProt Q9Y6T7); test: Lipid kinase screening (ADP-Glo), DGK b; format: biochemical
Procedure: (§1) The lipid kinase screening for ICL-CCIC-0019, CK14, CK145 (5), CK146 (4) and CK147 (8) (testing concentration for all compounds: 10 μM) was performed by MRC PPU International Centre for Kinase Profiling (Dundee, UK). The lipid kinase screening panel includes 15 human recombinant lipid kinases and the tests used Promega ADP Glo^TM High Throughput Assay kit (Promega, Southampton, UK). For each assay, reference compounds were used as quality control. Finally, mean percentage activity inhibited by compounds and standard deviation for all the repeats were calculated.

Kinetic solubility assay = format: physicochemical; conditions: 0.1 M PBS (2% DMSO), aqueous buffer, kinetic from dmso stock; read-out: Kinetic Solubility: Solubility
Procedure: (§2) The ADME study for ICL-CCIC-0019, CK14, CK145 (5), CK146 (4) and CK147 (8) was performed by Charles River Drug Discovery Services (Essex, UK).
(§3) The predicted in vitro pharmacokinetic characteristics of compounds were evaluated by four ADME assays, namely kinetic solubility assay, metabolic stability assay using human liver microsome S9, permeability and efflux study using the Caco-2 cell line, and matrix stability assay using fasted state simulated gastric fluid (FaSSGF). All tested CHKA inhibitors were highly soluble (>150 μM) in 0.1 M PBS (2% DMSO) (Table 1). […] The in vivo clearance was calculated to predict the actual clearance in humans by scaling the clearance values, which takes into account liver weight, microsomes per liver and liver blood flow. […] In Caco-2 cell permeability assay, drug permeability was investigated and presented as apparent permeability coefficients (Papp) in A to B (A-B, apical to basolateral direction) and B to A (B-A, basolateral to apical direction).

Caco-2 cells = test: Anti-proliferative SRB assay, Caco-2; format: cell-based; conditions: Homo sapiens; Caco-2, SRB, 72 h; Table S2, ± SD
Procedure: (§4) Half-maximal growth inhibitory concentrations (GI50) were determined using sulforhodamine B (SRB) assay as described elsewhere. In brief, cells were seeded in 96-wells at respective cell densities determined by their cell growth curves. After 24 h, the cells were treated in six replicates with medium or different concentrations of CHKA inhibitors in medium and incubated for another 72 h. On completion of incubation, the cells were fixed with 10% trichloroacetic acid (TCA) and stained with 0.4% SRB in 1% acetic acid. The stained protein was solubilized with 10 mM Tris base and optical density values were measured at 540 nm using a Multiskan® EX Micro plate photometer (Thermo Scientific, Loughborough, UK). Growth inhibition curves were plotted as percentage of the control groups and GI50 data were determined by least squares fitting method using GraphPad Prism 7.0. All the chemicals used in this experiment were obtained from Sigma-Aldrich (Gillingham, UK).

SPHK1 = SPHK1 (Homo sapiens, UniProt Q9NYA1); test: Lipid kinase screening (ADP-Glo), SPHK1; format: biochemical
SPHK1, sequence (Q9NYA1 whole entry): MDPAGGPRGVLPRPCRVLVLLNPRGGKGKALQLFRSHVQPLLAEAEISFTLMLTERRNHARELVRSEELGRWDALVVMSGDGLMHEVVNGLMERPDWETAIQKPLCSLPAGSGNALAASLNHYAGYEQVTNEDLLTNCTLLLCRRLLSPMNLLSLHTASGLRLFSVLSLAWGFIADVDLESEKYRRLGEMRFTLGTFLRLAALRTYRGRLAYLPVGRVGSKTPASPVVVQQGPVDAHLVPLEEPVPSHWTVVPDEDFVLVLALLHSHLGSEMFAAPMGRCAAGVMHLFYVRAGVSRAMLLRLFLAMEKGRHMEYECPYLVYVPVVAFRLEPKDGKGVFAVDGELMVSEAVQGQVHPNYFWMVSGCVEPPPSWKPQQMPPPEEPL
Procedure: as §1

[1] = system: [18F]D4-FCH uptake in C4-2B cells; test: [18F]D4-FCH uptake in vitro study, C4-2B; format: cell-based; conditions: Homo sapiens, 1 μM, read-out: inhibition of [18F]D4-FCH uptake (mean of CK14, CK145 and CK146)
Procedure: HCT-116 and C4-2B cells were seeded at a density of 5 × 10^5 cells per well into 6-well plates and incubated overnight. Cells were treated with 1 or 10 µM CHKA inhibitors (CK14, CK145, CK146 and CK147) for 1 h and pulsed with [^18F]D4-FCH (740 kBq) in presence of inhibitors in 1 mL for an additional hour at 37 °C. Cells were washed with ice-cold PBS three times and lysed in 1 mL RIPA buffer. The radioactivity of 800 µL lysate from each well was counted on a gamma counter (Perkin Elmer, Beaconsfield, UK) and normalized to protein content as determined by BCA assay.

PIP5K2A = biological target: T1, PIP5K2A (Homo sapiens, UniProt P48426); test: Lipid kinase screening (ADP-Glo), PIP5K2A; format: biochemical
T1 sequence (P48426 1-406): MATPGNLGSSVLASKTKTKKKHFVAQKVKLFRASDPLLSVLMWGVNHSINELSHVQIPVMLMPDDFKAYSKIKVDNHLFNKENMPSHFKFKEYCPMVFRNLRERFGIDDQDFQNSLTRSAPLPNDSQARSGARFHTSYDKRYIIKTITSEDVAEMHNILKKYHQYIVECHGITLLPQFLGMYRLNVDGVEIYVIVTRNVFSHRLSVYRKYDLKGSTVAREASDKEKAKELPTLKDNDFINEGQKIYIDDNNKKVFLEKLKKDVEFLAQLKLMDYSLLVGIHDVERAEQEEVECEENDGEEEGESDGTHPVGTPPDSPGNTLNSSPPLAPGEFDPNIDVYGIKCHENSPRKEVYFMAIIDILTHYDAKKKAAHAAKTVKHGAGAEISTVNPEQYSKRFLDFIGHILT
Procedure: as §1

CHK a (CHKA) = CHK a (CHKA) (Homo sapiens, UniProt P35790); test: Lipid kinase screening (ADP-Glo), CHKA; format: biochemical; conditions: for % Inhibition CHK a: 10 μM
CHK a (CHKA), sequence (P35790 whole entry): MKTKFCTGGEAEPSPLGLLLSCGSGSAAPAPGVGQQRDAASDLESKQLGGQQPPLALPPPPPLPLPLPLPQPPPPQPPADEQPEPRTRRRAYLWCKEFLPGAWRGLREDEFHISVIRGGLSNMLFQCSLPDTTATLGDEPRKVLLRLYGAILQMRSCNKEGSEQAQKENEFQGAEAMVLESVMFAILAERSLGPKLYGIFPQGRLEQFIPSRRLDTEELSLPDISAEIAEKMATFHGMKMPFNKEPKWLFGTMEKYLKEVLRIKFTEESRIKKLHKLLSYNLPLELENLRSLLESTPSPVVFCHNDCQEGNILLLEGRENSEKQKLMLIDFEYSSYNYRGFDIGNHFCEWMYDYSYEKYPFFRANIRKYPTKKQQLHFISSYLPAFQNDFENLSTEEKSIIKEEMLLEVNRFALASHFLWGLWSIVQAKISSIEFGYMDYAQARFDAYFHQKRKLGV
Procedure: as §1

HCT-116 cells = test: Anti-proliferative SRB assay, HCT-116; format: cell-based; conditions: Homo sapiens
Procedure: as §4

22Rv1 cell line = test: Anti-proliferative SRB assay, 22Rv1; format: cell-based; conditions: Homo sapiens; 22Rv1, PSMA +; Table S3, ± SD
Procedure: as §4

[2] = Caco-2 permeability and efflux study; format: in vitro ADME, human; conditions: human; for efflux ratio: Caco-2, read-out: Efflux ratio (Papp B-A/Papp A-B); for Papp A→B: Caco-2, apical to basolateral, read-out: Papp A-B; for Papp B→A: Caco-2, basolateral to apical, read-out: Papp B-A
Procedure: as §2, §3

[3] = system: four cancer cell lines (HCT-116, A549, HepG2, Caco-2); test: Anti-proliferative SRB assay, mean of four cancer cell lines; format: cell-based; conditions: Homo sapiens
Procedure: as §4

PI3Ka E524K + p85 = test: Lipid kinase screening (ADP-Glo), PI3Ka E524K + p85; format: biochemical, human; conditions: 10 μM
Procedure: as §1

[4] = system: HCT-116 colorectal cancer cells; test: Cellular uptake and metabolism study in HCT-116 (HPLC); format: cell-based, human; conditions: HCT-116, 50 μM
Procedure: The cell pellets were resuspended in 1 mL water: acetonitrile: formic acid (95:5:0.2, v/v/v) and disrupted by an ultrasonic cell disruptor (Soniprep 150, MSE Ltd., London, UK) for 1 min on ice. One hundred microliters of the filtered supernatant from centrifuge (4 °C, 15,000× g) were analyzed by HPLC. Three injections were performed for each sample. […] The HPLC method used in this study is described in Supplementary HPLC method C.

[5] = system: eight cell lines (22Rv1, C4-2B, LNCap, PC3, PNT1A, R1-AD1, R1-D567, HCT-116); test: Anti-proliferative SRB assay, mean across eight cell lines; format: cell-based; conditions: Homo sapiens
Procedure: as §4

[6] = HCT-116, PSMA −, Table S3, ± SD
[7] = HCT-116, SRB, 72 h, Table S2, ± SD

| SMILES | inhibition at 10 µM (DGK b) | solubility kinetic (Kinetic solubility assay) | GI50 (Caco-2 cells) | inhibition at 10 µM (SPHK1) | inhibition at 1 µM [1] | inhibition at 10 µM (PIP5K2A) | inhibition at 10 µM (CHK a (CHKA)) | % Inhibition CHK a (CHK a (CHKA)) | GI50 (HCT-116 cells; [6]) | GI50 (HCT-116 cells; [7]) | GI50 (22Rv1 cell line) | efflux ratio [2] | Papp A→B [2] | Papp B→A [2] | GI50 [3] | % Inhibition PI3Ka E524K + p85 (PI3Ka E524K + p85) | in vitro conversion to CK146 or intermediates (in words) ([4]; 1 h and 2 h, HPLC) | GI50 [5] | cellular uptake relative to CK145 ([4]; 1 h and 2 h post-incubation) |
| --- | --- | --- | --- | --- | --- | --- | --- | --- | --- | --- | --- | --- | --- | --- | --- | --- | --- | --- | --- |
| CC(=O)NCCCCC(NC(=O)OC(C)(C)C)C(=O)N1CCN(c2cc[n+](CCCCCCCCCCCCCC[n+]3ccc(N(C)C)cc3)cc2)CC1 (stereo not drawn) [CK145] | 8% | 178 µM | 10.8 ± 1 µM | 0.6% | 46 ± 1% | 0.4% | 63% | 62.9% | 103 ± 6.27 µM | 6.63 ± 0.2 µM | 45.6 ± 6.4 µM | > 2.8 | < 0.1 ×10⁻⁶ cm/s | 0.3 ×10⁻⁶ cm/s | 5 ± 0.3 µM | −0.1% | not observed | – | – |
| CN(C)c1cc[n+](CCCCCCCCCCCCCC[n+]2ccc(N3CCNCC3)cc2)cc1 [CK146] | 1.1% | 158 µM | 3.09 ± 0.05 µM | 2.1% | 46 ± 1% | 1.4% | 69% | 69.1% | 4.76 ± 0.8 µM | 4.76 ± 0.8 µM | 4.98 ± 1.5 µM | > 2.6 | < 0.1 ×10⁻⁶ cm/s | 0.3 ×10⁻⁶ cm/s | 2.5 ± 0.3 µM | −6.5% | – | 3.8 ± 0.9 µM | – |
| CN(C)c1cc[n+](CCCCCCCCCCCC[n+]2ccc(N(C)C)cc2)cc1 [ICL-CCIC-0019] | 8.6% | 161 µM | 1.19 ± 0.04 µM | -3.7% | – | -16.1% | 53% | 53.4% | 0.42 ± 0.03 µM | 0.42 ± 0.03 µM | 0.91 ± 0.13 µM | > 8.6 | < 0.1 ×10⁻⁶ cm/s | 0.9 ×10⁻⁶ cm/s | 0.5 ± 0.02 µM | 1.6% | – | 0.6 ± 0.1 µM | approximately two-fold |
